Data published in patent US6022895A, “Substituted amino compounds and their use as substances having an analgesic effect” (priority 1997, dated 2000).
Counter-ions that a name gives are not always drawn.

Legend:
δ opiate receptor = molecular target: T1, δ opiate receptor (Rattus norvegicus, UniProt P33533); test: δ opiate receptor binding (displacement of (3H)-2-D-ala-deltorphin II, rat brain membrane homogenate); set-up: species or system male Wistar rats; conditions: mean values ± standard deviations of ≥3 independent tests; 1 nmole/l (3H)-2-D-ala-deltorphin II; pH 7.4; 90 minutes at 37° C.; Ki from IC50 by Cheng-Prussoff equation
T1 construct: The rat brain, which was freshly prepared in each case, was homogenized; from tissue; host or cells: brain of male Wistar rats, without the cerebellum, pons and medulla oblongata (membrane homogenate)
Method: δ Opiate Receptor Binding Investigations
Tests to determine the affinity of the compounds of formula (I) according to the invention for the δ opiate receptor were performed on meninx homogenates (a homogenate of the brain of male Wistar rats, without the cerebellum, pons and medulla oblongata).
The rat brain, which was freshly prepared in each case, was homogenized for this purpose, while being cooled in ice, in 50 mmoles/l Tris-HCl (pH 7.4) and was centrifuged for 10 minutes at 5000 g and 4° C. After decanting and discarding the supernatant liquor, and taking up and homogenising the membrane sediment again in […] Tris-HCl (pH 7.4), the homogenate was subsequently centrifuged for 20 minutes at 20,000 g and 4° C. This washing step was repeated once more. Thereafter, the supernatant liquor was decanted, the membrane sediment was homogenized in cold 50 mmoles/l Tris-HCl, 20% glycerol (w/v), 0.01% bacitracin (w/v) (pH 7.4), and was frozen in aliquots until testing was performed. For the receptor binding tests, the aliquots were thawed and diluted 1:10 with the binding test buffer.
50 mmoles/l Tris-HCl, 5 mmoles/l MgCl2 (pH 7.4) supplemented with 0.1% (w/v) bovine serum albumin, with 1 nmole/l (^3 H)-2-D-ala-deltorphin II as the radioactive ligand, was used as the buffer in the binding test. The proportion of non-specific binding was determined in the presence of 10 μmoles/l naloxone.
In further batches, the compounds according to the invention were added in a series of concentrations and the displacement of the radioactive ligand from its specific binding was determined. The respective triple batches were incubated for 90 minutes at 37° C. and were subsequently harvested by means of filtration through glass fiber filters (GF/B) for the determination of the radioactive ligand bound to the membrane homogenate. The radioactivity of the glass fiber filter discs was measured in a β-counter after adding a scintillator.
The affinity of the compounds according to the invention for the δ opiate receptor was calculated by the mass action law, by means of non-linear regression, as the IC50 value. Ki values were calculated from the IC50 values using the Cheng-Prussoff equation. The Ki values are given as mean values ± standard deviations of ≥3 tests which were independent of each other.

μ-receptors = conditions: background statement; cited from earlier work

T1 sequence (P33533 whole entry): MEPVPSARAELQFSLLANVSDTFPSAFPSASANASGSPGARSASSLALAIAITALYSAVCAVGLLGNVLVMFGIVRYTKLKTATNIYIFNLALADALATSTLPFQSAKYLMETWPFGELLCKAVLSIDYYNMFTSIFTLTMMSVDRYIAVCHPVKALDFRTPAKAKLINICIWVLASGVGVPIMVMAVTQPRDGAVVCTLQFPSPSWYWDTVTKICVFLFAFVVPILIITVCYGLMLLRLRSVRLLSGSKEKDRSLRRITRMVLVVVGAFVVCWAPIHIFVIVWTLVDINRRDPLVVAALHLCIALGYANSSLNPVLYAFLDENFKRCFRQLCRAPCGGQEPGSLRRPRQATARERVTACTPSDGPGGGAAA

Q: For `CN(C)CC1=C(c2cccc(O)c2)c2ccccc2CC1` [Example 1, 3-(2-dimethylaminomethyl-3,4-dihydro-naphth-1-yl)-phenol hydrochloride], which Ki (δ opiate receptor) is on record?
A: 55.8 ± 4.6 nM

Q: Which Ki (δ opiate receptor) does the source give for `CN(C)CC1=C(c2cccc(O)c2)c2ccccc2CCC1` [Example 2a, 3-(6-dimethylaminomethyl-8,9-dihydro-7H-benzo-cyclohepten-5-yl)-phenol hydrochloride] here?
A: 17.2 ± 4.3 nM

Q: Which Ki (δ opiate receptor) does the source give for `CCN(CC)CC1=C(c2cccc(O)c2)c2ccccc2CCC1` [Example 2b, 3-(6-diethylaminomethyl-8,9-dihydro-7H-benzocyclohepten-5-yl)-phenol hydrochloride] here?
A: 728 ± 146 nM

Q: Which Ki (δ opiate receptor) does the source give for `CCCN(CCC)CC1=C(c2cccc(O)c2)c2ccccc2CCC1` [Example 2c, 3-(6-di-n-propylaminomethyl-8,9-dihydro-7H-benzocyclohepten-5-yl)-phenol h ydrochloride] here?
A: 294 ± 106 nM

Q: Which Ki (δ opiate receptor) does the source give for `CN(CCc1ccccc1)CC1=C(c2cccc(O)c2)c2ccccc2CCC1` [Example 2d, 3-{6-[(methyl-phenethyl-amino)-methyl]-8,9-dihydro-7H-benzocyclohepten-5-yl}-phenol hydrochloride] here?
A: 54.3 ± 8.2 nM

Q: Which Ki (δ opiate receptor) does the source give for `CN(CC1=C(c2cccc(O)c2)c2ccccc2CCC1)Cc1ccccc1` [Example 2e, 3-{6-[(benzyl-methyl-amino)-methyl]-8,9-dihydro-7H-benzocyclohepten-5-yl}-phenol hydrochloride] here?
A: 936 ± 32 nM

Q: With `CN(C)CC1=C(c2cccc(O)c2)c2ccccc2CCCC1` [Example 2f, 3-(6-dimethylaminomethyl-7,8,9,10-tetrahydrobenzocycloocten-5-yl)-phenol h ydrochloride] as the compound, how does the Ki (δ opiate receptor) read?
A: 46.3 ± 10.1 nM

Q: For `CN(CC1=C(c2cccc(O)c2)c2ccccc2CCC1)CC1CC1` [Example 2g, 3-{6-[(cyclopropylmethyl-methyl-amino)-methyl]-8,9-dihydro-7H-benzocyclohepten-5-yl}-phenol hydrochloride], which Ki (δ opiate receptor) is on record?
A: 182 ± 12 nM

Q: With `CN(CCc1ccccn1)CC1=C(c2cccc(O)c2)c2ccccc2CCC1` [Example 2h, 3-(6-{[methyl-(2-pyridin-2-yl-ethyl)-amino]-methyl)-8,9-dihydro-7H-benzocyclohepten-5-yl)-phenol dihydrochloride] as the compound, how does the Ki (δ opiate receptor) read?
A: 223 ± 86 nM

Q: With `CN(C)CC1=C(c2cccc(O)c2)c2ccccc2C1` [Example 2i, 3-(2-dimethylaminomethyl-3H-inden-1-yl)-phenol hydrochloride] as the compound, how does the Ki (δ opiate receptor) read?
A: 157 ± 16 nM

Q: With `CN(C)CC1=C(c2cccc(O)c2)c2ccc3ccccc3c2CC1` [Example 2j, 3-(2-dimethylaminomethyl-3,4-dihydro-phenanthren-1-yl)-phendlydrochloride] as the compound, how does the Ki (δ opiate receptor) read?
A: 80.8 ± 29.7 nM

Q: For `COc1ccc2c(c1)CCC(CN(C)C)=C2c1ccccc1` [Example 3, (6-methoxy-1-phenyl-3,4-dihydro-naphth-2-ylmethyl)-dimethylamine hydrochloride], which Ki (δ opiate receptor) is on record?
A: 456 ± 62 nM

Q: With `COc1cccc2c1CCC(CN(C)C)=C2c1ccccc1` [Example 4, (5-methoxy-1-phenyl-3,4-dihydro-naphth-2-ylmethyl)-dimethylamine hydrochloride] as the compound, how does the Ki (δ opiate receptor) read?
A: 517 ± 45 nM

Q: For `CN(C)CC1=C(c2cccc(O)c2)c2ccc(O)cc2CC1` [Example 6, 6-dimethylaminomethyl-5-(3-hydroxy-phenyl)-7,8-dihydro-naphth-2-ol hydrochloride], which Ki (δ opiate receptor) is on record?
A: 40.9 ± 6.7 nM

Q: For `CN(C)CC1=C(c2cccc(O)c2)c2cc(Oc3ccccc3)ccc2CC1` [Example 8, 3-(2-dimethylaminomethyl-7-phenoxy-3,4-dihydro-naphth-1-yl)-phenol hydrochloride], which Ki (δ opiate receptor) is on record?
A: 25.7 ± 10.2 nM

Q: For `COc1cccc2c1CCC(CN(C)C)=C2c1cccc(O)c1` [Example 9a, 3-(2-dimethylaminomethyl-5-methoxy-3,4-dihydronaphth-1-yl)-phenol hydrochloride], which Ki (δ opiate receptor) is on record?
A: 23.9 ± 0.9 nM

Q: Which Ki (δ opiate receptor) does the source give for `CN(C)CC1=C(c2cccc(O)c2)c2cc(-c3ccccc3)ccc2CC1` [Example 9b, 3-(2-dimethylaminomethyl-7-phenyl-3,4-dihydronaphth-1-yl)-phenol hydrochloride] here?
A: 39.3 ± 2.2 nM

Q: With `CCCCc1ccc2c(c1)C(c1cccc(O)c1)=C(CN(C)C)CC2` [Example 9c, 3-(7-n-butyl-2-dimethylaminomethyl-3,4-dihydronaphth-1-yl)-phenol hydrochloride] as the compound, how does the Ki (δ opiate receptor) read?
A: 42.2 ± 16 nM

Q: With `C=CCN(C)CC1=C(c2cccc(O)c2)c2ccccc2CCC1` [Example 10, 3-{6-[allyl-methyl-amino)-methyl]-8,9-dihydro-7H-benzocyclohepten-5-yl}-phenol hydrochloride] as the compound, how does the Ki (δ opiate receptor) read?
A: 679 ± 214 nM

Q: With `CC(CN(C)C)=C(c1cccc(O)c1)c1cccc(O)c1` [Example 11a, 3-[3-dimethylamino-1-(3-hydroxyphenyl)-2-methyl-propenyl]-phenol hydrochloride] as the compound, how does the Ki (δ opiate receptor) read?
A: 34 ± 5.8 nM

Q: With `C/C(CN(C)C)=C(\c1ccc(-c2ccccc2)cc1)c1cccc(O)c1` [Example 11b, Z-3-(1-biphenyl-4-yl-3-dimethylamino-2-methyl-propenyl)-phenol hydrochloride] as the compound, how does the Ki (δ opiate receptor) read?
A: 23.7 ± 1.7 nM

Q: For `CN1CC[C@]23c4c5ccc(O)c4O[C@H]2[C@@H](O)C=C[C@H]3[C@H]1C5` [morphine], which “selective binding to μ-receptors” value (μ-receptors) is on record?
A: selectively binds to what are termed μ-receptors
